Series [1] in a line: Metabolic stability in rat liver S9 fraction assessed as parent compound remaining at 5 uM incubated for 30 mins in presence of UDPGA by HPLC-MS analysis. Type of series: ADME, subcellular. Conditions: read-out: Stability.
Series [2] can be described thus: Inhibition of porcine cytosolic phospholipase A2 alpha using SAPC and 2-dioleoyl-sn-glycerol as substrate incubated for 60 mins by HPLC-UV analysis. Also noted: species or system Sus scrofa.
Series [3] is described as follows: Kinetic solubility of compound in PBS at pH 7.4 incubated for 24 hrs by HPLC-UV analysis. Type of series: physicochemical. Conditions: read-out: Kinetic_solubility.
The nature of series [4]: Metabolic stability in rat liver S9 fraction assessed as parent compound remaining at 20 uM incubated for 30 mins in presence of NADPH by HPLC-MS analysis. The format is ADME, subcellular. To be noted: read-out: Stability.
Series [5] is described as follows: Partition coefficient,logP of compound by reversed-phase HPLC analysis. To be noted: octanol/water. The format is physicochemical.
Series [6] can be described thus: Drug concentration in C57Bl/6 mouse plasma at 30 mg/kg,po observed after 2 hrs by HPLC-MS analysis. The format is ADME, organism-based.
The nature of series [7]: Permeability across apical to basolateral side in human Caco-2 cells at 10 uM incubated for 2 hrs by HPLC-MS analysis. Type of series: ADME, cell-based. Conditions: caco-2, 2 h.
A short description of series [8]: Thermodynamic solubility of the compound in PBS at pH 7.4 incubated for 20 hrs by HPLC-UV analysis. Type of series: physicochemical. To be noted: read-out: Therm_solubility.
The species named for the next series is Sus scrofa. Briefly: Inhibition of porcine cytosolic phospholipase A2 alpha using SAPC and 2-dioleoyl-sn-glycerol as substrate at 10 uM incubated for 60 mins by HPLC-UV analysis.
Series [9] is described as follows: Apparent permeability across apical to basolateral side in human Caco-2 cells at 10 uM incubated for 2 hrs by HPLC-MS analysis. The format is ADME, cell-based.

≈ marks a conversion by molar mass, not a printed value.

What is called IC50 is the concentration that inhibits the measured activity by half. A higher IC50 goes with weaker potency. One may read the logP as the decadic logarithm of the partition coefficient of the neutral form, usually between octanol and water. A high value points to a more lipophilic compound. For the compound `CCCCCCCCc1ccc(OC(C)C(=O)Cn2cc(CCC(=O)O)c(-c3nc(C)no3)c2)cc1` (stereo not drawn), the remaining at 0.5 h, 5 µM in series [1] is over 90%. This compound displayed an IC50 in [2] of 13 nM. The solubility kinetic at 24 h in [3] is 10 µg/mL (≈ 20.2 µM). In addition, the remaining at 0.5 h, 20 µM in [4] was found to be 62%. The same compound yielded a logP in [5] of 6.5.
Take `COc1cccc2c1C(=O)c1c(O)c3c(c(O)c1C2=O)C[C@@](O)(C(C)=O)C[C@@H]3O[C@H]1C[C@H](N)[C@H](O)[C@H](C)O1` [DAUNORUBICIN]: in series [1], the remaining at 0.5 h, 5 µM amounted to 32%. The remaining at 0.5 h, 20 µM in series [4] came out at 28%.
Take `CC(C)C(=O)c1cn(CC(=O)COc2ccc(Oc3ccc(C(F)(F)F)cc3)cc2)cc1CCC(=O)O`: the remaining at 0.5 h, 5 µM in series [1] was over 90%. For the same compound, the IC50 in series [2] is 82 nM. In [4], the remaining at 0.5 h, 20 µM is under 5%. The compound also had a logP in series [5] of 4.
For the compound `CCCCCCCCc1ccc(OCC(=O)C(C)n2cc(CCC(=O)O)c(-c3nc(C)no3)c2)cc1` (stereo not drawn), in series [1], the remaining at 0.5 h, 5 µM is over 90%. Inhibition in series [2] was half-maximal at 1 nM (IC50). Besides, in [4], the remaining at 0.5 h, 20 µM is 43%. The logP in series [5] was determined as 6.1.
Regarding `CCCCCCCCc1ccc(OCC(=O)Cn2cc(C(=O)C(C)C)cc2CCC(=O)O)cc1`, in series [6], the concentration at 2 h came to 220 ng/mL. Besides, the remaining at 0.5 h, 5 µM in [1] is over 90%. Also, the permeability entry in series [7] was “Impermeable”. This compound also gave an IC50 in [2] of 460 nM. In addition, in series [8], the solubility thermodynamic at 20 h was 394 µg/mL (≈ 839 µM). Also, the solubility kinetic at 24 h in series [3] is at least 250 µg/mL. Further, the remaining at 0.5 h, 20 µM in [4] came out at 60%.
What is called inhibition is the relative decrease from the control value, in per cent. Take `CCCCCCCCc1ccc(OCC(=O)Cn2c(C)c(CCC(=O)O)c(C(=O)C(C)C)c2C)cc1`: in series [1], the remaining at 0.5 h, 5 µM was over 90%. The same compound came in with a half-inhibitory concentration (IC50) in series [2] of over 10000 nM. The remaining at 0.5 h, 20 µM in series [4] is 39%. Further, the inhibition in the series filed under Sus scrofa was found to be 45%.
Consider `CCCCCCCCc1ccc(OCC(=O)Cn2cc(CCC(=O)O)c(-c3nc(C)no3)c2)cc1`, for which the remaining at 0.5 h, 5 µM in series [1] is over 90%. In series [2], this compound came in with an IC50 of 1 nM. Further, the remaining at 0.5 h, 20 µM in series [4] turned out to be 34%. Further, the logP in series [5] was found to be 5.9.
Regarding `Cc1noc(-c2cn(CC(=O)C(C)Oc3ccc(Oc4ccc(F)cc4)cc3)cc2CCC(=O)O)n1` (stereo not drawn), the remaining at 0.5 h, 5 µM in series [1] was over 90%. For the same compound, the midpoint of inhibition in series [2], the IC50, lay at 32 nM. In series [4], the remaining at 0.5 h, 20 µM was found to be 15%. In addition, the log partition coefficient (logP) in series [5] was found to be 3.3.
With `CCCCCCCCc1ccc(OCC(=O)Cn2cc(CC(=O)O)c(C(=O)C(C)C)c2)cc1`, the remaining at 0.5 h, 5 µM in series [1] was over 90%. In series [2], this compound had an IC50 of 40 nM. For the same compound, the remaining at 0.5 h, 20 µM in [4] came out at 25%.
For the compound `CCCCCCCCc1ccc(OCC(=O)Cn2cc(CCCC(=O)O)c(C(=O)C(C)C)c2)cc1`, in series [1], the remaining at 0.5 h, 5 µM was over 90%. The compound further gave an IC50 in [2] of 450 nM. Also, in series [4], the remaining at 0.5 h, 20 µM was found to be 25%.
As for `CC(C)C(=O)c1cn(CC(=O)COc2ccc(-c3ccc(C(F)(F)F)cc3)cc2)cc1CCC(=O)O`, the remaining at 0.5 h, 5 µM in series [1] was over 90%. This compound came in with an IC50 in series [2] of 170 nM. In addition, the remaining at 0.5 h, 20 µM in series [4] is 34%. The logP in [5] was 4.
Usually Papp A→B stands for how fast a substance crosses the layer from the apical side. For `COc1ccc2c(c1)c(CC(=O)O)c(C)n2C(=O)c1ccc(Cl)cc1` [INDOMETHACIN], in series [9], the Papp A→B at 2 h, 10 µM was found to be 18 ×10⁻⁶ cm/s.
`CCCCCCCCc1ccc(OCC(=O)Cn2cc(C(=O)C(C)C)c3cc(C(=O)O)ccc32)cc1` yielded an IC50 in series [2] of 10 nM.
Take `CC(C)C(=O)c1cn(CC(=O)COc2ccc3c(ccn3-c3ccc(F)cc3)c2)cc1CCC(=O)O`: the remaining at 0.5 h, 5 µM in series [1] was over 90%. The IC50 in series [2] came to 310 nM. The remaining at 0.5 h, 20 µM in series [4] is under 5%. In [5], the logP is 3.3.
For the compound `CCCCCCCCc1ccc(OCC(O)Cn2cc(CCC(=O)O)c(C(=O)C(C)C)c2)cc1` (stereo not drawn), the concentration at 2 h in [6] is 50 ng/mL. Moreover, in [7], the permeability result is reported as “Permeable”.
Turning to `Cc1noc(-c2cn(CC(=O)C(C)Oc3ccc(Oc4ccc(C(F)(F)F)cc4)cc3)cc2CCC(=O)O)n1` (stereo not drawn), the remaining at 0.5 h, 5 µM in [1] was over 90%. For the same compound, the permeability entry in series [7] is listed as “Permeable”. Moreover, the IC50 in series [2] is 16 nM. In series [4], the remaining at 0.5 h, 20 µM stood at 30%. Besides, the logP in series [5] was found to be 4.1.
Turning to `Cc1noc(-c2cn(CC(=O)C(C)Oc3ccc(Oc4ccc(Cl)cc4)cc3)cc2CCC(=O)O)n1` (stereo not drawn), the remaining at 0.5 h, 5 µM in series [1] is over 90%. In series [2], this compound registered an IC50 of 38 nM. In addition, in [4], the remaining at 0.5 h, 20 µM was 21%. The logP in series [5] stood at 3.9.
In the case of `CCCCCCCCCCOc1ccc(OCC(=O)COc2ccc(C(=O)O)cc2)cc1`, the IC50 in series [2] stood at 6.5 nM.
The compound `CC(C)C(=O)c1cn(CC(=O)COc2ccc(Oc3ccccc3)cc2)c2ccc(C(=O)O)cc12` registered a half-inhibitory concentration (IC50) in series [2] of 12 nM.
Consider `CCCCCCCCc1ccc(OCC(=O)Cn2cc(C(=O)C(C)C)cc2CCCC(=O)O)cc1`, for which the remaining at 0.5 h, 5 µM in series [1] was over 90%. Moreover, inhibition in series [2] was half-maximal at 650 nM (IC50). In addition, the remaining at 0.5 h, 20 µM in [4] was 59%.
Regarding `CC(C)C(=O)c1cn(CC(=O)COc2ccc(C34CC5CC(CC(C5)C3)C4)cc2)cc1CCC(=O)O`, the remaining at 0.5 h, 5 µM in [1] was over 90%. In [2], this compound showed an IC50 of 51 nM. For the same compound, the remaining at 0.5 h, 20 µM in [4] was determined as 20%. In addition, the lipophilicity (logP) in [5] came to 5.6.
On to `CCCCCCCCc1ccc(OCC(=O)Cn2cc(CCC(=O)O)c(C(=O)C(C)C)c2)cc1`, for which, in series [1], the remaining at 0.5 h, 5 µM is over 90%. Besides, half-maximal inhibition in series [2] (IC50) required 53 nM. Further, in series [3], the solubility kinetic at 24 h turned out to be 174 µg/mL (≈ 371 µM). In addition, in series [4], the remaining at 0.5 h, 20 µM turned out to be 54%. In series [5], this compound yielded a logP of 6.3.
With `CCCCCCCCc1ccc(OCC(=O)Cn2cc(-c3nc(C)no3)c3cc(C(=O)O)ccc32)cc1`, the remaining at 0.5 h, 5 µM in series [1] is under 5%. Further, the IC50 in [2] turned out to be 15 nM. The remaining at 0.5 h, 20 µM in series [4] came to 30%.

Values taken from ChEMBL document CHEMBL5236626, “Synthesis and pharmacokinetic properties of novel cPLA2α inhibitors with 1-(carboxyalkylpyrrolyl)-3-aryloxypropan-2-one structure” (Bioorg Med Chem, 2023).
